Experimental data taken from publication PMC7343282, “Tissue Distribution of Several Series of Cationic Surfactants in Rainbow Trout (Oncorhynchus mykiss) Following Exposure via Water” (Environmental Science & Technology, 2020).
Where “and” joins values, the source holds several entries; their conditions need not be identical. Equal values may be shown once.

Experiments:
[1] = Tissue concentrations in rainbow trout after 7 d exposure via water (two mixtures); assay type: in vivo, Oncorhynchus mykiss; settings: rainbow trout (Oncorhynchus mykiss), in vivo
Experimental: The study was conducted with rainbow trout (Oncorhynchus mykiss) weighing between 98 and 165 g. The fish were purchased from Nordic trout Sweden AB and held in the aquaria facility prior to the experiment in February 2018. Ethical approval for the experiments was obtained from Stockholms djurförsöksetiska nämnd (decision 9967-2017). The experiments were conducted in 300 L fiberglass aquaria with a water renewal rate of 1.3 L min^–1 (MIX 1) and 1.45 L min^–1 (MIX 2). The water temperature was 10 °C and the pH 7.5. The water hardness was estimated to be 1.1 mM Ca^2+ based on information from the water supplier. The aquaria water was circulated through a filter of polyester wool at 800–1200 L h^–1 with an Eheim 2273 Pro 4+ pump. The outflow from the filter pump was placed above the water surface, providing for aeration. The lighting was dim and programmed on a 12 h light/12 h dark cycle. The fish were fed fish food pellets supplied by the fish farm at 1.0% of their body weight per day.
A solution of the test chemical mixture in methanol was infused continuously (3.5 and 3.8 μL min^–1 for MIX 1 and MIX 2, respectively) into the water inflow using a syringe pump. The intended concentrations of the chemicals in water ranged from 2.5 to 50 μg L^–1 (Table 1). They were selected with the help of modeled estimates of the BCF that were based on reported and extrapolated membrane water partition coefficients[7] and biotransformation rate constants predicted with quantitative structure activity relationships (QSARs)[24],[25] to parameterize the BIONIC model.[26] Based on these estimates, we selected an exposure concentration which would result in concentrations in fish that were clearly above the limit of quantification (LOQ) of the analytical method, while trying to keep the quantifiable exposure concentration as low as possible to minimize the risk of toxic effects and micelle formation (see comparison of intended concentrations with available toxicological data in Table S4).
The surface of the fish posterior of the gills was rinsed with 100% methanol to remove test chemical residues adsorbed to the outer surface of the skin and absorbed in the skin mucus. […] The fish were dissected and the liver, the kidney, the gills, and the remaining contents of the abdominal cavity were taken and weighed. Skin and muscle samples were prepared from the upper dorsal region on semi-frozen fish after the methanol rinse had removed the mucus. The main part of the subcutaneous fat tissue was included in the muscle samples rather than in the skin samples. All samples were stored frozen at −20 °C until further analysis.
For 6 fish from each aquarium and 3 control fish, samples of muscle, skin, liver, and gills were homogenized in a bullet blender (muscle and liver) (MiniG, SPEXsamplePrep) or in a cryo-mill (skin and gill) (Mixer mill cryomill, Retsch GmbH). A sub-sample of 0.5–1.2 g of the homogenate was extracted twice in methanol (4 mL, 50 °C, ultra-sound, 60 min), employing centrifugation at 4000 rpm for phase separation. Further information on the extraction efficiency of this method can be found in the Supporting Information (Table S5 and accompanying text). Isotope labeled standards of Q10 (D21), Q14 (D29), and P16 (D33) were added to a portion of the extract corresponding to 12–75 mg of the sample. The extract volume was adjusted to 3 mL with methanol and then cleaned up on a weak cationic exchange SPE column (WCX, 60 mg, 30 μm particle size, waters). Solvent elution was performed by gravity flow. The column was conditioned with 2 mL of methanol, followed by 2 mL of Milli-Q water adjusted to pH 7 with ammonium hydroxide to activate the ion exchange. The sample extract was loaded onto the column, and it was subsequently rinsed with 20 mL of methanol.

[2] = Tissue-blood distribution coefficients and volume of distribution; settings: whole blood, pH 7.5, Estimated volume of distribution Vd, residues in muscle, liver and blood only
Experimental: (§1) Blood is the transport medium for contaminants in fish, and the tissue distribution is governed by tissue–blood distribution coefficients. […] Muscle–blood and liver–blood distribution coefficients (DMus–B and DL–B) were calculated as the quotients of the concentrations in the respective tissues and blood. This approach implies that there was an internal test chemical steady state in the fish.
(§2) The experimental data also allow estimation of the volume of distribution (Vd), an important parameter for extrapolating in vitro measures of e.g. metabolism to in vivo. In the context of quantitative in vitro–in vivo extrapolation for fish, Vd is defined as the quotient of the concentration in fish and the concentration in blood and describes the equivalent volume of blood that would contain the same amount of the chemical as 1 kg of fish.[40]Vd was estimated using the residues that had been clearly taken up systemically (i.e., those in muscle, liver and blood).

Danio rerio = settings: ref REACH dossiers (European Chemicals Agency); cited from earlier work
Pimephales promelas = tested on: Pimephales promelas; set-up: method as in REACH dossiers (European Chemicals Agency); settings: ref REACH dossiers (European Chemicals Agency); cited from earlier work
carp (Cyprinus carpio) = tested on: carp (Cyprinus carpio); set-up: method as in ECHA Registration dossier for octadecylamine; settings: after acidic methanol wash to remove the mucous, validity uncertain, ref ECHA Registration dossier for octadecylamine; cited from earlier work
[3] = tested on: rainbow trout (Oncorhynchus mykiss); assay: Tissue-blood distribution coefficients and volume of distribution; settings: residues in muscle, liver and blood only
Experimental: as §1, §2

[4] = pH 7.5, Concentration in muscle

Structure (SMILES) | concentration at 7 d ([1]; pH 7.5, Concentration in gills) | concentration at 7 d ([1]; pH 7.5, Concentration in skin) | Vd at 7 d ([2]; Mean) | Vd at 7 d ([2]; exposed fish #1) | Vd at 7 d ([2]; exposed fish #2) | Vd at 7 d ([2]; exposed fish #3) | Vd at 7 d ([2]; exposed fish #4) | Vd at 7 d ([2]; exposed fish #5) | Vd at 7 d ([2]; exposed fish #6) | concentration at 7 d ([1]; Concentration in skin) | concentration at 7 d ([1]; pH 7.5, Concentration in blood) | concentration at 7 d ([1]; pH 7.5, Concentration in liver) | concentration at 7 d [1, 4] | Estimated volume of distribution Vd ([3]; Mean) | Estimated volume of distribution Vd ([3]; exposed fish #1) | Estimated volume of distribution Vd ([3]; exposed fish #2) | Estimated volume of distribution Vd ([3]; exposed fish #3) | Estimated volume of distribution Vd ([3]; exposed fish #4) | Estimated volume of distribution Vd ([3]; exposed fish #5) | Estimated volume of distribution Vd ([3]; exposed fish #6) | also measured
CCCCCCCCCN [P9, Nonylamine] | 1040 ng/g | 70 ng/g | 0.91 L/kg | 0.59 L/kg | 1.06 L/kg | 0.8 L/kg | 1.6 L/kg | 0.83 L/kg | 0.56 L/kg | – | – | – | – | – | – | – | – | – | – | – | –
CCCCCCCCCCCCN [P12, Dodecylamine] | 18500 ng/g | 2720 ng/g | 1.29 L/kg | 1.13 L/kg | 1.31 L/kg | 1.07 L/kg | 1.87 L/kg | 1.56 L/kg | 0.79 L/kg | 4630 ng/g | 558 ng/g | 35600 ng/g | – | – | – | – | – | – | – | – | 96h-LC50 (Danio rerio): 0.54 µg/mL and 0.42 µg/mL
CCCCCCCCCCCCCN [P13, tridecylamine] | 16000 ng/g | 2040 ng/g | – | 1.59 L/kg | 1.44 L/kg | 1.28 L/kg | 1.33 L/kg | 1.54 L/kg | 1.77 L/kg | 2160 ng/g | 495 ng/g | – | 451 ng/g | – | – | – | – | – | – | – | Vd at 7 d ([2]; rainbow trout (Oncorhynchus mykiss), other: exposure via water, Mean): 1.49 L/kg; 96h-LC50 (Pimephales promelas): 0.065 µg/mL
CCCCCCCCCCCCCCCCN [P16, hexadecylamine] | 7960 ng/g | 364 ng/g | 1.13 L/kg | 0.99 L/kg | 1.2 L/kg | 1.1 L/kg | 1.63 L/kg | 1.15 L/kg | 0.73 L/kg | 415 ng/g | 119 ng/g | 5450 ng/g | 90 ng/g | – | – | – | – | – | – | – | BCF (carp (Cyprinus carpio)): 300 L/kg
CCCCCCCCCN(C)C [T9, N,N-dimethylnonylamine] | – | – | – | – | – | – | – | – | – | – | – | – | – | 0.49 L/kg | 0.53 L/kg | 0.45 L/kg | 0.41 L/kg | 0.51 L/kg | 0.52 L/kg | 0.52 L/kg | –
CCCCCCCCCCCCCN(C)C [T13, N,N-dimethyltridecylamine] | – | – | – | – | – | – | – | – | – | – | – | – | – | 0.71 L/kg | 0.58 L/kg | 0.64 L/kg | 0.59 L/kg | 1.18 L/kg | 0.80 L/kg | 0.47 L/kg | –
